Results as given in patent US7687456B2, “Compounds for enzyme inhibition” (Proteolix, Inc., priority 2005, dated 2010).

Tested on: proteasome CT-L activity
Assay: Proteasome CT-L inhibition in blood of mice one hour after oral dosing
Assay type: in vivo
Details: one hour post-dosing, blood lysate, substrate LLVY-AMC, relative to vehicle-dosed cohort
Procedure: Compounds were formulated in 10% PS80/NaCitrate (pH 3) vehicle and administered to mice orally (PO) (3 animals/cohort). One hour post-dosing, the animals were sacrificed and the following tissues harvested: blood, brain, adrenal gland, heart and liver. Whole blood (˜200 μl) was washed twice with PBS and lysed by hypotonic shock (300 μl 50 mM Tris pH 8, 5 mM EDTA). Blood lysates were stored at −80° C. until assayed. Blood lysates were clarified by centrifugation in a microcentrifuge. The CT-L specific activity of proteasome in each lysate was evaluated by determining: a) the protein concentration by modified Bradford assay with bovine gamma globulin as a standard; and b) the rate of cleavage of the fluorogenic proteasome substrate LLVY-AMC. The percent proteasome activity for the analog-treated animals was calculated by dividing of the average specific activity for each analog-dosed cohort by the average specific activity of the vehicle-dosed cohort. Percent proteasome inhibition was calculated by subtracting percent proteasome activity from 100. Equivalents

Compound: COC[C@H](NC(=O)c1cc(C)on1)C(=O)N[C@@H](Cc1ccccc1)C(=O)N[C@@H](CC(C)C)C(=O)[C@@]1(C)CO1 [Compound 010]
- proteasome CT-L inhibition (40 mg/kg PO): > 90%

Compound: CC(C)C[C@H](NC(=O)c1cc(CN2CCOCC2)on1)C(=O)N[C@@H](Cc1ccccc1)C(=O)N[C@@H](CC(C)C)C(=O)[C@@]1(C)CO1 [Compound 023]
- proteasome CT-L inhibition (40 mg/kg PO): > 80%

Compound: COC[C@H](NC(=O)c1cc(C)on1)C(=O)N[C@H](C(=O)N[C@@H](CC(C)C)C(=O)[C@@]1(C)CO1)C(C)C [Compound 029]
- proteasome CT-L inhibition (20 mg/kg PO): > 70%

Compound: CC(C)C[C@H](NC(=O)c1cc(CN2CCOCC2)on1)C(=O)N[C@@H](Cc1cscn1)C(=O)N[C@@H](CC(C)C)C(=O)[C@@]1(C)CO1 [Compound 035]
- proteasome CT-L inhibition (40 mg/kg PO): > 90%

Compound: COC[C@H](NC(=O)c1cc(C)on1)C(=O)N[C@@H](Cc1cscn1)C(=O)N[C@@H](CC(C)C)C(=O)[C@@]1(C)CO1 [Compound 039]
- proteasome CT-L inhibition (20 mg/kg PO): > 75%

Compound: COC[C@H](NC(=O)c1cc(C)on1)C(=O)N[C@@H](C)C(=O)N[C@@H](CC(C)C)C(=O)[C@@]1(C)CO1 [Compound 045]
- proteasome CT-L inhibition (20 mg/kg PO): > 80%

Compound: Cc1cc(C(=O)N[C@@H](Cc2ccccn2)C(=O)N[C@@H](Cc2ccccc2)C(=O)N[C@@H](CC(C)C)C(=O)[C@@]2(C)CO2)no1 [Compound 055]
- proteasome CT-L inhibition (20 mg/kg PO): > 80%

Compound: CC(C)C[C@H](NC(=O)[C@H](Cc1ccccc1)NC(=O)[C@@H](NC(=O)c1cc(CN2CCOCC2)on1)C(C)C)C(=O)[C@@]1(C)CO1 [Compound 061]
- proteasome CT-L inhibition (40 mg/kg PO): > 80%

Compound: COCC[C@H](NC(=O)c1cc(C(C)C)on1)C(=O)N[C@@H](Cc1ccccc1)C(=O)N[C@@H](CC(C)C)C(=O)[C@@]1(C)CO1 [Compound 068]
- proteasome CT-L inhibition (40 mg/kg PO): > 70%

Compound: COC[C@H](NC(=O)c1cc(C)on1)C(=O)N[C@@H](COC)C(=O)N[C@@H](CC(C)C)C(=O)[C@@]1(C)CO1 [Compound 075]
- proteasome CT-L inhibition (20 mg/kg PO): > 80%

Compound: COC[C@H](NC(=O)c1ccon1)C(=O)N[C@@H](COC)C(=O)N[C@@H](CC(C)C)C(=O)[C@@]1(C)CO1 [Compound 083]
- proteasome CT-L inhibition (20 mg/kg PO): > 80%

Compound: COC[C@H](NC(=O)c1cc(C)no1)C(=O)N[C@@H](COC)C(=O)N[C@@H](CC(C)C)C(=O)[C@@]1(C)CO1 [Compound 085]
- proteasome CT-L inhibition (20 mg/kg PO): > 50%

Compound: COC[C@H](NC(=O)c1cc(C)on1)C(=O)N[C@@H](COC)C(=O)N[C@@H](Cc1ccccc1)C(=O)[C@@]1(C)CO1 [Compound 088]
- proteasome CT-L inhibition (20 mg/kg PO): > 80%

Compound: COC[C@H](NC(=O)c1cc(C)on1)C(=O)N[C@@H](COC)C(=O)N[C@@H](Cc1ccc(F)cc1)C(=O)[C@@]1(C)CO1 [Compound 091]
- proteasome CT-L inhibition (20 mg/kg PO): > 80%
